Assay results taken from patent US8163793B2, “Proline derivatives” (Hoffman-La Roche Inc., priority 2009, dated 2012).
pIC50: −log10 of the molar value. Structures can show the parent of a compound that is named as a salt.

Legend:
Cathepsin S = Cathepsin S (UniProt P25774); experiment: Cathepsin enzyme inhibition assay (fluorogenic peptide substrate Z-Val-Val-Arg-AMC), Cathepsin S; format: biochemical, human and mouse; details: enzyme 1 nM, substrate 20 μM, pH 6.5; read-out: CatS IC50
Protocol: (§1) Cathepsin Enzyme Inhibition Assay
(§2) Enzyme activity is measured by observing the increase in fluorescence intensity caused by cleavage of a peptide substrate containing a fluorophore whose emission is quenched in the intact peptide.
(§3) Assay buffer: 100 mM potassium phosphate pH 6.5, EDTA-Na 5 mM, Triton X-100 0.001%, DDT 5 mM.
(§4) Enzymes (all at 1 nM): human and mouse Cathepsin S, Cat K, Cat B, Cat L Substrate (20 μM): Z-Val-Val-Arg-AMC, except for Cat K which uses Z-Leu-Arg-AMC (both from Bachem).
(§5) AMC=7-Amino-4-Methyl-Coumarin.
Enzyme is added to the substance dilutions in 96-well microtitre plates and the reaction is started with substrate. […] IC50 are calculated by standard methods. The results are expressed in μM in the following table.

Cat L = Cat L (UniProt P07711); experiment: Cathepsin enzyme inhibition assay (fluorogenic peptide substrate Z-Val-Val-Arg-AMC), Cathepsin L; format: biochemical, human and mouse; details: enzyme 1 nM, substrate 20 μM, pH 6.5; read-out: CatL IC50
Protocol: as §1, §2, §3, §4, §5
Excitation 360 nm, Emission 465 nm.
Enzyme is added to the substance dilutions in 96-well microtitre plates and the reaction is started with substrate. Fluorescence emission is measured over 20 minutes, during which time a linear increase is observed in the absence of inhibitor. IC50 are calculated by standard methods. The results are expressed in μM in the following table.

Compound | pIC50 (Cathepsin S) | pIC50 (Cat L)
Cc1ccc(=O)n(-c2ccc(S(=O)(=O)[C@H]3CN[C@H](C(=O)NC4(C#N)CC4)C3)c(C(F)(F)F)c2)n1 [Example 23, (2S,4R)-4-[4-(3-M ethyl-6-oxo-6H-pyridazin-1-yl)-2-trifluoromethyl-benzenesulfonyl]-pyrrolidine-2-carboxylic acid (1-cyano-cyclopropyl)-amide hydrochloride] | 9.05 | ≤ 4.60
Cc1nccn1-c1ccc(S(=O)(=O)[C@H]2CN[C@H](C(=O)NC3(C#N)CC3)C2)c(C(F)(F)F)c1 [Example 24, (2S,4R)-4-[4-(2-M ethyl-imidazol-1-yl)-2-trifluoromethyl-benzenesulfonyl]-pyrrolidine-2-carboxylic acid (1-cyano-cyclopropyl)-amide hydrochloride] | 8.59 | ≤ 4.60
N#CC1(NC(=O)[C@@H]2C[C@@H](S(=O)(=O)c3ccc(-n4ccnc4-c4ccccc4)cc3C(F)(F)F)CN2)CC1 [Example 25, (2S,4R)-4-[4-(2-Phenyl-imidazol-1-yl)-2-trifluoromethyl-benzenesulfonyl]-pyrrolidine-2-carboxylic acid (1-cyano-cyclopropyl)-amide hydrochloride] | 8.64 | ≤ 4.60
N#CC1(NC(=O)[C@@H]2C[C@@H](S(=O)(=O)c3ccc(N4CCCC4=O)cc3C(F)(F)F)CN2)CC1 [Example 26, (2S,4R)-4-[4-(2-Oxo-pyrrolidin-1-yl)-2-trifluoromethyl-benzenesulfonyl]-pyrrolidine-2-carboxylic acid (1-cyano-cyclopropyl)-amide hydrochloride] | 8.55 | ≤ 4.60
N#CC1(NC(=O)[C@@H]2C[C@@H](S(=O)(=O)c3ccc(N4CCOC4=O)cc3C(F)(F)F)CN2)CC1 [Example 27, (2S,4R)-4-[4-(2-oxo-oxazolidin-3-yl)-2-trifluoromethyl-benzenesulfonyl]-pyrrolidine-2-carboxylic acid (1-cyano-cyclopropyl)-amide hydrochloride] | 8.66 | ≤ 4.60
N#CC1(NC(=O)[C@@H]2C[C@@H](S(=O)(=O)c3ccc(N4CCC(F)(F)C4)cc3C(F)(F)F)CN2)CC1 [Example 28, (2S,4R)-4-[4-(3,3-Difluoro-pyrrolidin-1-yl)-2-trifluoromethyl-benzenesulfonyl]-pyrrolidine-2-carboxylic acid (1-cyano-cyclopropyl)-amide hydrochloride] | 8.82 | ≤ 4.60
N#CC1(NC(=O)[C@@H]2C[C@@H](S(=O)(=O)c3ccc(N4CCOCC4)cc3C(F)(F)F)CN2)CC1 [Example 29, (2S,4R)-4-(4-Morpholin-4-yl-2-trifluoromethyl-benzenesulfonyl)-pyrrolidine-2-carboxylic acid (1-cyano-cyclopropyl)-amide hydrochloride] | 9.10 | 4.40
N#CC1(NC(=O)[C@@H]2C[C@@H](S(=O)(=O)c3ccc(N4CCOCC4=O)cc3C(F)(F)F)CN2)CC1 [Example 30, (2S,4R)-4-[4-(3-Oxo-morpholin-4-yl)-2-trifluoromethyl-benzenesulfonyl]-pyrrolidine-2-carboxylic acid (1-cyano-cyclopropyl)-amide hydrochloride] | 8.52 | ≤ 4.60
N#CC1(NC(=O)[C@@H]2C[C@@H](S(=O)(=O)c3ccc(-n4ccccc4=O)cc3C(F)(F)F)CN2)CC1 [Example 31, (2S,4R)-4-[4-(2-Oxo-2H-pyridin-1-yl)-2-trifluoromethyl-benzenesulfonyl]-pyrrolidine-2-carboxylic acid (1-cyano-cyclopropyl)-amide hydrochloride] | 8.70 | ≤ 4.60
N#CC1(NC(=O)[C@@H]2C[C@@H](S(=O)(=O)c3ccc(-n4ccncc4=O)cc3C(F)(F)F)CN2)CC1 [Example 32, (2S,4R)-4-[4-(2-Oxo-2H-pyrazin-1-yl)-2-trifluoromethyl-benzenesulfonyl]-pyrrolidine-2-carboxylic acid (1-cyano-cyclopropyl)-amide hydrochloride] | 8.30 | ≤ 4.60
CC(C)(C#N)NC(=O)[C@@H]1C[C@@H](S(=O)(=O)c2ccccc2Cl)CN1C(=O)OC(C)(C)C [Example 33, (2S,4R)-4-(2-Chloro-benzenesulfonyl)-2-[(cyano-dimethyl-methyl)-carbamoyl]-pyrrolidine-1-carboxylic acid tert-butyl ester] | 6.17 | ≤ 4.60
CC(C)(C)OC(=O)N1C[C@H](S(=O)(=O)c2ccccc2Cl)C[C@H]1C(=O)NC1(C#N)CCC1 [Example 34, (2S,4R)-4-(2-Chloro-benzenesulfonyl)-2-(1-cyano-cyclobutylcarbamoyl)-pyrrolidine-1-carboxylic acid tert-butyl ester] | 6.12 | ≤ 4.60
CC(C)(C)OC(=O)N1C[C@H](S(=O)(=O)c2ccccc2Cl)C[C@H]1C(=O)NC1(C#N)CCCCC1 [Example 35, (2S,4R)-4-(2-Chloro-benzenesulfonyl)-2-(1-cyano-cyclohexylcarbamoyl)-pyrrolidine-1-carboxylic acid tert-butyl ester] | 5.39 | ≤ 4.60
CC(C)(C)OC(=O)N1C[C@H](S(=O)(=O)c2ccccc2Cl)C[C@H]1C(=O)NC(C#N)c1ccccc1 (stereo partly drawn) [Example 36, (2S,4R)-4-(2-Chloro-benzenesulfonyl)-2-[(cyano-phenyl-methyl)-carbamoyl]-pyrrolidine-1-carboxylic acid tert-butyl ester] | 9.30 | 5.89
CC(C)(C)OC(=O)N1C[C@H](S(=O)(=O)c2ccccc2Cl)C[C@H]1C(=O)NC(C)(C#N)c1ccccc1 (stereo partly drawn) [Example 37, (2S,4R)-4-(2-Chloro-benzenesulfonyl)-2-[(cyano-methyl-phenyl-methyl)-carbamoyl]-pyrrolidine-1-carboxylic acid tert-butyl ester] | 5.99 | ≤ 4.60
CC(C)(C)OC(=O)N1C[C@H](S(=O)(=O)c2ccccc2C(F)(F)F)C[C@H]1C(=O)NC(C#N)C1CC1 (stereo partly drawn) [Example 38, (2S,4R)-2-[(Cyano-cyclopropyl-methyl)-carbamoyl]-4-(2-trifluoromethyl-benzenesulfonyl)-pyrrolidine-1-carboxylic acid tert-butyl ester] | 8.30 | ≤ 4.60
Cc1ccc(S(=O)(=O)[C@@H]2C[C@@H](C(=O)NC3(C#N)CC3)N(C(=O)OC(C)(C)C)C2)c(C)c1 [Example 39, (2S,4R)-2-(1-Cyano-cyclopropylcarbamoyl)-4-(2,4-dimethyl-benzenesulfonyl)-pyrrolidine-1-carboxylic acid tert-butyl ester] | 8.66 | 4.30
Cc1cc(Cl)ccc1S(=O)(=O)[C@@H]1C[C@@H](C(=O)NC2(C#N)CC2)N(C(=O)OC(C)(C)C)C1 [Example 40, (2S,4R)-4-(4-Chloro-2-methyl-benzenesulfonyl)-2-(1-cyano-cyclopropylcarbamoyl)-pyrrolidine-1-carboxylic acid tert-butyl ester] | 8.28 | 4.38
CC(C)(C)OC(=O)N1C[C@H](S(=O)(=O)c2cccc(Cl)c2Cl)C[C@H]1C(=O)NC1(C#N)CC1 [Example 41, (2S,4R)-2-(1-Cyano-cyclopropylcarbamoyl)-4-(2,3-dichloro-benzenesulfonyl)-pyrrolidine-1-carboxylic acid tert-butyl ester] | 7.51 | ≤ 4.60
N#CC1(NC(=O)[C@@H]2C[C@@H](S(=O)(=O)c3ccccc3C(F)(F)F)CN2)CC1 [Example 43, (2S,4R)-4-(2-Trifluoromethyl-benzenesulfonyl)-pyrrolidine-2-carboxylic acid (1-cyano-cyclopropyl)-amide] | 8.66 | ≤ 4.60
CC(C)(C#N)NC(=O)[C@@H]1C[C@@H](S(=O)(=O)c2ccccc2Cl)CN1 [Example 44, (2S,4R)-4-(2-Chloro-benzenesulfonyl)-pyrrolidine-2-carboxylic acid (cyano-dimethyl-methyl)-amide Hydrochloride] | 6.82 | ≤ 4.60
N#CC1(NC(=O)[C@@H]2C[C@@H](S(=O)(=O)c3ccccc3Cl)CN2)CCC1 [Example 45, (2S,4R)-4-(2-Chloro-benzenesulfonyl)-pyrrolidine-2-carboxylic acid (1-cyano-cyclobutyl)-amide Hydrochloride] | 6.42 | ≤ 4.60
N#CC1(NC(=O)[C@@H]2C[C@@H](S(=O)(=O)c3ccccc3Cl)CN2)CCCCC1 [Example 46, (2S,4R)-4-(2-Chloro-benzenesulfonyl)-pyrrolidine-2-carboxylic acid (1-cyano-cyclohexyl)-amide Hydrochloride] | 6.68 | ≤ 4.60
CC(C#N)(NC(=O)[C@@H]1C[C@@H](S(=O)(=O)c2ccccc2Cl)CN1)c1ccccc1 (stereo partly drawn) [Example 48, (2S,4R)-4-(2-Chloro-benzenesulfonyl)-pyrrolidine-2-carboxylic acid (cyano-methyl-phenyl-methyl)-amide Hydrochloride] | 6.63 | ≤ 4.60
Cc1ccc(S(=O)(=O)[C@H]2CN[C@H](C(=O)NC3(C#N)CC3)C2)c(C)c1 [Example 49, (2S,4R)-4-(2,4-Dimethyl-benzenesulfonyl)-pyrrolidine-2-carboxylic acid (1-cyano-cyclopropyl)-amide Hydrochloride] | 8.74 | 5.16
